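Protocol summary: plate cells (96-well), add compound at 5 concentrations, incubate 48 h, interpolate endpoints linearly. Here, GI50 denotes the concentration required for 50% inhibition of growth. Definition used: TGI = concentration required for complete inhibition of growth.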
Experiments:
Test in all cases: NCI anticancer screen, dose series, 48 h
EKVX NSCLC = system: EKVX NSCLC
HCT-15 colon = system: HCT-15 colon
LOX IMVI melanoma = system: LOX IMVI melanoma
MALME-3M melanoma = system: MALME-3M melanoma
OVCAR-3 ovarian = system: OVCAR-3 ovarian
OVCAR-4 ovarian = system: OVCAR-4 ovarian
SK-MEL-28 melanoma = system: SK-MEL-28 melanoma
T-47D breast = system: T-47D breast
MDA-MB-231 breast = system: MDA-MB-231 breast
CCRF-CEM leukemia = system: CCRF-CEM leukemia

SMILES	TGI (EKVX NSCLC) [µM]	TGI (HCT-15 colon) [µM]	TGI (LOX IMVI melanoma) [µM]	TGI (MALME-3M melanoma) [µM]	TGI (OVCAR-3 ovarian) [µM]	TGI (OVCAR-4 ovarian) [µM]	TGI (SK-MEL-28 melanoma) [µM]	TGI (T-47D breast) [µM]	GI50 (EKVX NSCLC) [µM]	GI50 (HCT-15 colon) [µM]	GI50 (MALME-3M melanoma) [µM]	GI50 (MDA-MB-231 breast) [µM]	TGI (MDA-MB-231 breast) [µM]	GI50 (OVCAR-3 ovarian) [µM]	GI50 (OVCAR-4 ovarian) [µM]	GI50 (T-47D breast) [µM]	GI50 (LOX IMVI melanoma) [µM]	GI50 (SK-MEL-28 melanoma) [µM]	TGI (CCRF-CEM leukemia) [µM]	GI50 (CCRF-CEM leukemia) [µM]
COc1cc(O)c(C(C)=O)c(O)c1	> 100	> 100	> 100	> 100	> 100	> 100	> 100	> 100												
CCN(CC)CCOc1ccc(/C=C2\CC3C4CC=C5C[C@@H](OC(C)=O)CC[C@]5(C)C4CC[C@]3(C)C2=O)cc1OC (stereo not given in full)	36.3	10		3.47	3.45	> 100		> 100	16.7	2.96	1.96	21.1	> 100	1.78	20.9	38.2				
O=C(Nc1cc(S(=O)(=O)c2ccc(Cl)cc2)ccc1Cl)c1cc(I)cc(I)c1O	44.5	32.7	38.7	48.5	34.2	33.5	24.6		20.2	16.5	21.1	17.4	36.5	17	17.2		18.2	9.38		
COc1ccc2[nH]c3c(=O)[nH]ncc3c2c1	> 100	> 100	> 100	> 100	> 100	> 100	> 100												> 100	
COc1ccc2c(c1)nc1n2C(c2ccc(F)cc2)SC1 (stereo not given)	61.9	42.8	61	63	65.4	> 100		51	21.8	19.7	23.5			22.6	33.8	14.4	24.8		> 100	25.9
Cc1ccccc1NC(=O)C(=O)CC(=O)c1ccc([N+](=O)[O-])cc1	> 100	> 100	> 100	> 100	> 100	> 100	> 100													
CC(=O)OCCC(O[Si](c1ccccc1)(c1ccccc1)C(C)(C)C)C(C)(C)O (stereo not given)	> 100	> 100	57.8	> 100	62.2	> 100	> 100												67.6	
CCOC(=O)C[C@@]12CCCNC1(C)CCc1ccccc12 (stereo not given in full)	> 100	> 100	> 100	> 100	> 100														> 100	
COC(=O)C1(F)C(=O)NC(=O)NC1OC (stereo not given)		> 100	> 100	> 100	> 100	> 100	> 100												> 100	
O=C1C(c2ccccc2)=C(c2ccccc2)[C@H](c2ccccc2)[C@]1(Cc1nnn(-c2ccc([N+](=O)[O-])cc2)c1N1CCOCC1)c1ccccc1	> 37.5	> 37.5	> 37.5		> 37.5	> 37.5	> 37.5												> 37.5	
CC(C)(C)c1cc(CCC(=O)Nc2ccc(Cl)cc2Cl)nc(N)n1	> 100	> 100	> 100	> 100	> 100	> 100	> 100												> 100	

— PubChem BioAssay (NCI)
